One may read the logP as a log measure of how a compound divides between an organic and an aqueous phase. The low end stands for lower lipophilicity, the high end for higher lipophilicity. Compound `O=[N+]([O-])c1cccc2c1c([N+](=O)[O-])cc[n+]2[O-]` returned a logP of 0.95.
`CC1(C)CCCC(C)(C)N1N=O`: the logP came out at 2.49.
The compound `CNC(=O)C(NC(C)=O)C(C)C` (stereo unspecified) yielded a logP of -0.35.
`CCCCCCCCCCCCCC[n+]1ccc(C)c(C)c1.[I-]`: the log partition coefficient (logP) amounted to 2.93.
Compound `OC(C1CO1)C(O)C1CO1` (stereo unspecified) came in with a logP of -1.29.
For `CCS(=O)(=O)CCn1ccnc1[N+](=O)[O-]` the value was -0.58; for `CC(=O)Nc1ccn(C2OC(COC(C)=O)C(OC(C)=O)C2OC(C)=O)c(=O)n1` (stereo unspecified), -0.16; for `N#Cc1ccc([N+](=O)[O-])n1CCO`, 0.6.
In the case of `CCCCCCCCCCOC(=O)N(C)SN(C)C(=O)ON=C(C)SC` it was 6.2; in that of `CNC(=O)Oc1cccc(I)c1`, 2.52; in that of `Nc1cnccn1`, -0.07.
For `COCCOc1c(OC)cc(Cc2cnc(N)nc2N)cc1OC` the value was 0.56; for `CCOC(=O)C(=Cc1ccc(C)cc1)C(C)=O`, 2.63; for `Cc1cccc(NC(=O)CN2CCCCC2)c1`, 2.97.
In turn, `CC(=O)Oc1cccc(C(F)(F)F)c1` displayed a logP of 2.63.
Consider `Cc1cccc(C)c1N=C1NCCN1`, for which the logP worked out at 1.45.
`O=C1C=CC(=NO)c2ccccc21`: the logP amounted to 2.27.
In the case of `CCC(C)C(NC(C)=O)C(N)=O` (stereo unspecified) it was -0.03; in that of `CCOP(=S)(OCC)Oc1ccc(S(C)(=O)=O)cc1`, 2.56.
`Cc1ccccc1C(=N)c1ccccc1C` returned a lipophilicity (logP) of 3.31.
In the case of `CSC(C)=NOC(=O)N(C)SN(C)C(=O)c1ccccc1Cl` it was 2.5; in that of `CCOP(=S)(OCC)SCS(=O)C(C)(C)C` (stereo unspecified), 2.21.
For `CCCC(C)C1(CC)C(=O)NC(=O)N(C)C1=O` (stereo unspecified) the value was 2.45; for `Cc1ccc(OC2OC(CO)C(O)C(O)C2O)cc1` (stereo unspecified), -0.16; for `COCCn1ccnc1[N+](=O)[O-]`, 0.12.
In turn, `CCCC(=O)N(C)SN(C)C(=O)Oc1cccc2c1OC(C)(C)C2` displayed a logP of 3.8.
In the case of `Cc1cccc(N=NN(C)C)c1` it was 2.85; in that of `COc1ccc(CC(C)N)c(OC)c1OC` (stereo unspecified), 1.51; in that of `CCCCCCCC(=O)NN`, 1.
In the case of `CCN(CC)/N=N/c1nc[nH]c1C(N)=O` it was 0.78.
In the case of `CCCCCCCCCCCCCCCC[n+]1cc(C)cc(C)c1.[I-]` it was 3.35; in that of `FC(F)OC(F)(F)C(F)Cl` (stereo unspecified), 2.1.
`Cn1cnc([N+](=O)[O-])c1S(=O)(=O)Oc1ccccc1` showed a logP of 1.08.
`FC(F)(F)c1nc2cc(Br)c(Br)cc2[nH]1` yielded a logP of 4.15.
For `OCC1OC(Oc2ccc3ccccc3c2)C(O)C(O)C1O` (stereo unspecified) the value was 0.76; for `Cc1c(N(C)C)cc(Cc2cnc(N)nc2N)cc1N(C)C`, 2.06; for `CN(C=O)c1ccc(S(=O)(=O)N(C)C)cc1`, 0.4.
In the case of `CC(=O)Nc1cccc(OC(C)=O)c1` it was 1.03.
For `CN(C)c1ccc(N=C2C=CC(=O)C=C2)cc1` the value was 2.02.
Take `CC(C)(C)c1cccc(OC2OC(CO)C(O)C(O)C2O)c1` (stereo unspecified): the logP came out at 1.01.
Compound `CC1COCCN1N=O` (stereo unspecified) came in with a logP of -0.03.
In turn, `COc1cc(Cc2cnc(N)nc2N)cc(OC)c1C(=O)N(C)C` came in with a logP of -0.21.
`Clc1ccccc1-c1ccc(Cl)c(Cl)c1Cl` had a logP of 6.11.
For `COc1ccc(N(C)C(C)=O)cc1`, the logP came out at 0.72.
In the case of `C[N+](C)(C)Cc1cccc(N)c1.[Br-]` it was -2.5.
As to `CNC(=O)Oc1ccccc1SC`, the logP was determined as 1.51.
In the case of `Cc1cc(C)cc(OC(=O)CNC(=O)c2ccccc2)c1` it was 3.4; in that of `CC(=O)Nc1c(C)cc(O)c(C)c1C`, 0.75.
Regarding `NC(=O)CCCCCn1nnc2ccccc21`, the logP turned out to be 0.79.
In turn, `CCN(CC)CCNC(=O)c1cc(F)ccc1OC` registered a logP of 2.62.
In the case of `Fc1cccc(Cl)c1N=C1NCCN1`, the logP was determined as 1.45.

The values are drawn from the OPERA property sets (Mansouri et al. 2018).
